# Reference: the supplement of paper PMC10307832
# Compound: CN1CCN(CC1)C2=CC(=C(C=C2)NC3=NC=C4C(=N3)N(C5=CC=CC=C5C(=O)N4C)C)OC [XMD8-85] + Nc1nc2[nH]cc(CCc3ccc(C(=O)N[C@@H](CCC(=O)O)C(=O)O)cc3)c2c(=O)[nH]1 [Pemetrexed] (partner 0.2 µM)
# Assay: relative viability (nuclei count vs DMSO), 5 days (fraction); higher = more cells survive
# Conditions: first compound 0.08 µM
# In short: (§1)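 Relative viability is defined as nuclei in treated wells over nuclei in vehicle wells. Duplicate plates were run and medians reported. Lung cancer cell lines in 1536-well plates were dosed by pin tool one day after seeding, with one drug or with a fixed anchor-drug dose plus five library-drug doses (not always all listed) in √10 steps, and nuclei were counted after 5 days.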
row,Cell Line,relative viability
1,LU99A,0.162
2,LXF-289,0.856
3,NCI-H23,0.546
4,NCI-H322M,0.579
5,NCI-H441,0.263
6,NCI-H460,0.0608
7,NCI-H520,0.709
8,NCI-H596,0.477
9,NCI-H647,0.172
10,NCI-H650,0.944
11,NCI-H661,0.944
12,NCI-H838,0.243
13,NCI-H1355,1.04
14,NCI-H1437,0.29
15,NCI-H1650,0.376
16,NCI-H1651,0.506

row,Cell Line,relative viability
1,NCI-H1666,0.862
2,NCI-H1755,0.405
3,NCI-H1915,0.434
4,NCI-H1975,0.257
5,NCI-H1993,0.604
6,NCI-H2009,0.958
7,NCI-H2023,0.189
8,NCI-H2085,0.889
9,NCI-H2087,0.654
10,NCI-H2126,0.705
11,NCI-H2228,0.334
12,NCI-H2347,0.393
13,NCI-H2405,1.12
14,NCI-H3122,0.178
15,PC-3 [JPC-3],1.21

# Same assay, conditions: first compound 0.253 µM
row,Cell Line,relative viability
1,LOU-NH91,0.333
2,LU99A,0.179
3,LXF-289,0.88
4,NCI-H23,0.677
5,NCI-H322M,0.596
6,NCI-H441,0.261
7,NCI-H460,0.0555
8,NCI-H520,0.697
9,NCI-H647,0.16
10,NCI-H650,0.921
11,NCI-H661,0.946
12,NCI-H838,0.247
13,NCI-H1355,1.02
14,NCI-H1437,0.33
15,NCI-H1650,0.384
16,NCI-H1651,0.617

row,Cell Line,relative viability
1,NCI-H1666,0.811
2,NCI-H1734,0.405
3,NCI-H1755,0.441
4,NCI-H1915,0.523
5,NCI-H1975,0.286
6,NCI-H1993,0.572
7,NCI-H2009,1.03
8,NCI-H2023,0.223
9,NCI-H2085,0.826
10,NCI-H2087,0.697
11,NCI-H2126,0.758
12,NCI-H2228,0.319
13,NCI-H2347,0.529
14,NCI-H2405,1.05
15,NCI-H3122,0.201
16,PC-3 [JPC-3],0.928

# Same assay, conditions: first compound 0.8 µM
row,Cell Line,relative viability
1,LOU-NH91,0.311
2,LU99A,0.183
3,LXF-289,0.878
4,NCI-H23,0.607
5,NCI-H322M,0.606
6,NCI-H441,0.247
7,NCI-H460,0.0635
8,NCI-H520,0.75
9,NCI-H596,0.457
10,NCI-H647,0.18
11,NCI-H650,1.04
12,NCI-H661,0.93
13,NCI-H838,0.249
14,NCI-H1355,1.03
15,NCI-H1437,0.363
16,NCI-H1650,0.384
17,NCI-H1651,0.602

row,Cell Line,relative viability
1,NCI-H1666,0.83
2,NCI-H1734,0.419
3,NCI-H1755,0.444
4,NCI-H1915,0.484
5,NCI-H1975,0.305
6,NCI-H1993,0.681
7,NCI-H2009,1.1
8,NCI-H2023,0.326
9,NCI-H2085,0.849
10,NCI-H2087,0.692
11,NCI-H2126,0.693
12,NCI-H2228,0.343
13,NCI-H2347,0.427
14,NCI-H2405,1.04
15,NCI-H3122,0.203
16,PC-3 [JPC-3],1.1

# Same assay, conditions: first compound 2.53 µM
row,Cell Line,relative viability
1,LOU-NH91,0.295
2,LU99A,0.199
3,LXF-289,0.949
4,NCI-H322M,0.59
5,NCI-H441,0.279
6,NCI-H460,0.0564
7,NCI-H520,0.595
8,NCI-H596,0.465
9,NCI-H647,0.151
10,NCI-H650,0.852
11,NCI-H661,1.01
12,NCI-H838,0.208
13,NCI-H1355,1.07
14,NCI-H1437,0.317
15,NCI-H1650,0.306
16,NCI-H1651,0.748

row,Cell Line,relative viability
1,NCI-H1666,0.82
2,NCI-H1734,0.354
3,NCI-H1755,0.427
4,NCI-H1915,0.5
5,NCI-H1975,0.282
6,NCI-H1993,0.739
7,NCI-H2009,0.885
8,NCI-H2023,0.255
9,NCI-H2085,0.811
10,NCI-H2087,0.731
11,NCI-H2126,0.707
12,NCI-H2228,0.398
13,NCI-H2347,0.406
14,NCI-H2405,1.01
15,NCI-H3122,0.213
16,PC-3 [JPC-3],1.27

# Same assay, conditions: first compound 8 µM
row,Cell Line,relative viability
1,LOU-NH91,0.378
2,LU99A,0.165
3,LXF-289,0.899
4,NCI-H23,0.4
5,NCI-H322M,0.48
6,NCI-H441,0.256
7,NCI-H460,0.0781
8,NCI-H520,0.361
9,NCI-H596,0.368
10,NCI-H647,0.116
11,NCI-H650,0.717
12,NCI-H661,0.782
13,NCI-H838,0.184
14,NCI-H1355,0.976
15,NCI-H1437,0.272
16,NCI-H1650,0.294
17,NCI-H1651,0.445

row,Cell Line,relative viability
1,NCI-H1666,0.673
2,NCI-H1734,0.366
3,NCI-H1755,0.444
4,NCI-H1915,0.457
5,NCI-H1975,0.227
6,NCI-H1993,0.563
7,NCI-H2009,0.767
8,NCI-H2023,0.165
9,NCI-H2085,0.713
10,NCI-H2087,0.659
11,NCI-H2126,0.623
12,NCI-H2228,0.237
13,NCI-H2347,0.431
14,NCI-H2405,0.602
15,NCI-H3122,0.172
16,PC-3 [JPC-3],0.452

# Compound: O=C(O)C(Cc1ccccc1[N+](=O)[O-])=NNc1nc(-c2ccc(Cl)c(Cl)c2)cs1 (mixture of isomers) [4EGI-1] + Cc1nc(Nc2ncc(C(=O)Nc3c(C)cccc3Cl)s2)cc(N2CCN(CCO)CC2)n1 [Dasatinib] (partner 0.075 µM)
# Assay: as above
# Conditions: first compound 0.5 µM
# In short: as §1
row,Cell Line,relative viability
1,LOU-NH91,0.569
2,LU99A,0.615
3,LXF-289,0.282
4,NCI-H23,0.896
5,NCI-H322M,0.23
6,NCI-H441,0.609
7,NCI-H460,0.447
8,NCI-H520,0.204
9,NCI-H596,0.714
10,NCI-H647,0.149
11,NCI-H650,0.5
12,NCI-H661,1.2
13,NCI-H838,0.322
14,NCI-H1355,0.786
15,NCI-H1437,0.427
16,NCI-H1650,0.307
17,NCI-H1651,0.36

row,Cell Line,relative viability
1,NCI-H1666,0.838
2,NCI-H1734,0.562
3,NCI-H1755,0.503
4,NCI-H1915,0.358
5,NCI-H1975,0.372
6,NCI-H1993,0.595
7,NCI-H2009,0.344
8,NCI-H2023,0.599
9,NCI-H2085,0.318
10,NCI-H2087,0.837
11,NCI-H2126,0.673
12,NCI-H2228,0.472
13,NCI-H2347,0.339
14,NCI-H2405,0.204
15,NCI-H3122,0.967
16,PC-3 [JPC-3],1.03

# Same assay, conditions: first compound 1.581 µM
row,Cell Line,relative viability
1,LU99A,0.405
2,LXF-289,0.215
3,NCI-H441,0.547
4,NCI-H520,0.276
5,NCI-H596,0.566
6,NCI-H661,0.831
7,NCI-H1355,0.64
8,NCI-H1437,0.409
9,NCI-H1651,0.377
10,NCI-H1666,0.717
11,NCI-H1734,0.415
12,NCI-H1755,0.428
13,NCI-H1915,0.257
14,NCI-H1975,0.363
15,NCI-H1993,0.616
16,NCI-H2009,0.302
17,NCI-H2085,0.229
18,NCI-H2087,0.676
19,NCI-H2228,0.653
20,NCI-H2405,0.228
21,NCI-H3122,0.739
22,PC-3 [JPC-3],0.978

# Same assay, conditions: first compound 5 µM
row,Cell Line,relative viability
1,LOU-NH91,0.505
2,LU99A,0.54
3,LXF-289,0.249
4,NCI-H23,0.85
5,NCI-H322M,0.243
6,NCI-H441,0.536
7,NCI-H460,0.515
8,NCI-H520,0.187
9,NCI-H596,0.584
10,NCI-H647,0.186
11,NCI-H650,0.463
12,NCI-H661,0.785
13,NCI-H838,0.245
14,NCI-H1355,0.682
15,NCI-H1437,0.421
16,NCI-H1650,0.364
17,NCI-H1651,0.44

row,Cell Line,relative viability
1,NCI-H1666,0.834
2,NCI-H1734,0.46
3,NCI-H1755,0.424
4,NCI-H1915,0.314
5,NCI-H1975,0.302
6,NCI-H1993,0.543
7,NCI-H2009,0.312
8,NCI-H2023,0.605
9,NCI-H2085,0.272
10,NCI-H2087,0.918
11,NCI-H2126,0.629
12,NCI-H2228,0.496
13,NCI-H2347,0.318
14,NCI-H2405,0.225
15,NCI-H3122,0.881
16,PC-3 [JPC-3],0.893

# Same assay, conditions: first compound 15.81 µM
row,Cell Line,relative viability
1,LOU-NH91,0.378
2,LU99A,0.449
3,LXF-289,0.188
4,NCI-H23,0.79
5,NCI-H322M,0.237
6,NCI-H441,0.565
7,NCI-H460,0.307
8,NCI-H520,0.215
9,NCI-H596,0.582
10,NCI-H647,0.167
11,NCI-H650,0.459
12,NCI-H661,0.517
13,NCI-H838,0.267
14,NCI-H1355,0.497
15,NCI-H1437,0.232
16,NCI-H1650,0.219

row,Cell Line,relative viability
1,NCI-H1651,0.346
2,NCI-H1666,0.566
3,NCI-H1734,0.396
4,NCI-H1755,0.412
5,NCI-H1915,0.311
6,NCI-H1975,0.282
7,NCI-H1993,0.467
8,NCI-H2009,0.269
9,NCI-H2023,0.226
10,NCI-H2085,0.216
11,NCI-H2087,0.493
12,NCI-H2126,0.383
13,NCI-H2228,0.552
14,NCI-H2347,0.305
15,NCI-H2405,0.211
16,NCI-H3122,0.841

# Same assay, conditions: first compound 50 µM
row,Cell Line,relative viability
1,LOU-NH91,0.458
2,LU99A,0.235
3,LXF-289,0.102
4,NCI-H23,0.496
5,NCI-H322M,0.256
6,NCI-H441,0.229
7,NCI-H460,0.0847
8,NCI-H520,0.153
9,NCI-H596,0.491
10,NCI-H647,0.0838
11,NCI-H650,0.297
12,NCI-H661,0.262
13,NCI-H838,0.19
14,NCI-H1355,0.349
15,NCI-H1437,0.103
16,NCI-H1650,0.136
17,NCI-H1651,0.174

row,Cell Line,relative viability
1,NCI-H1666,0.374
2,NCI-H1734,0.218
3,NCI-H1755,0.288
4,NCI-H1915,0.163
5,NCI-H1975,0.249
6,NCI-H1993,0.441
7,NCI-H2009,0.146
8,NCI-H2023,0.0859
9,NCI-H2085,0.271
10,NCI-H2087,0.27
11,NCI-H2126,0.309
12,NCI-H2228,0.13
13,NCI-H2347,0.336
14,NCI-H2405,0.172
15,NCI-H3122,0.239
16,PC-3 [JPC-3],0.937
